IC50 and Activity data for four compounds are collected here from ChEMBL document CHEMBL1157896, “A repurposing strategy identifies novel synergistic inhibitors of Plasmodium falciparum heat shock protein 90” (J Med Chem, 2010).

Calls of active or inactive are those of the source. The calls are words filed in the database; no cut-off is given here. Where only a bound is given, the exact number is not on record here.

Assay [1] concerns Plasmodium falciparum. Briefly: Antimalarial activity against Plasmodium falciparum 3D7 infected in human erythrocytes after 48 hrs by flow-cytometry. Format: functional, organism-based. As to conditions: 3D7, 48 h.
Assay [2] concerns Plasmodium falciparum. The assay can be described thus: Antimalarial activity against chloroquine-resistant Plasmodium falciparum W2 infected in human erythrocytes after 48 hrs by flow-cytometry. The following applies: W2, 48 h. Format: functional, organism-based.
The test system of assay [3] is Plasmodium falciparum. The assay can be described thus: Displacement of bis-ANS from Plasmodium falciparum 3D7 Hsp90 expressed in Escherichia coli BL21(DE3) assessed as reduction in fluorescence at 100 uM after 30 min by fluorescent monochromator spectrophotometry. On the set-up: scale not given: the % may be the effect or the level left. The assay is classed as functional.

Assay [4] deals with Plasmodium falciparum. Briefly: Antimalarial activity against multidrug-resistant Plasmodium falciparum isolate 208432 infected in human erythrocytes after 48 hrs by flow-cytometry. Format: functional, organism-based. As to conditions: isolate 208432, 48 h.
Assay [5] addresses Heat shock protein HSP90 (Homo sapiens) (UniProt P07900+P08238). Briefly: Displacement of bis-ANS from human Hsp90 assessed as reduction in fluorescence at 100 uM after 30 mins by fluorescent monochromator spectrophotometry. The assay is classed as protein assay.

Regarding `OC(c1cc(C(F)(F)F)nc2c(C(F)(F)F)cccc12)C1CCCCN1` (stereo not given) [MEFLOQUINE], the results for the IC50 with Plasmodium falciparum [1] and with Plasmodium falciparum [2] were 2.1 nM and 3.2 nM, respectively.
For the compound `NC(CP(=O)(O)O)C(=O)O` (racemic), the Activity with Plasmodium falciparum [3] was above 70%. In addition, the 50% inhibitory concentration (IC50) (in general, the midpoint of a concentration-inhibition curve) with Plasmodium falciparum [4] was found to be 47.1 nM; in the assay with Plasmodium falciparum [1] it was 60.3 nM; in the assay with Plasmodium falciparum [2], 84.4 nM. Also, the result in assay [5] was inactive.
For `COc1ccc2c(c1)[nH]c1c(C)nccc12` [HARMINE], in that order: above 70%, 182 nM, 50.1 nM, 28 nM and “inactive”.
As for `C[C@@H]1CC[C@H]2[C@@H](C)C(=O)O[C@@H]3O[C@@]4(C)CC[C@@H]1[C@]32OO4` [ARTEMISININ], the IC50 in the assay on Plasmodium falciparum [4] was 68.3 nM; with Plasmodium falciparum [1], 6.1 nM; in the assay with Plasmodium falciparum [2], 7.3 nM.
